Laboratory results taken from patent US7973062B2, “Androgen receptor-ablative agents” (The Ohio State University Research Foundation, priority 2008, dated 2011).
Where two headings read alike, the source gives them in different places.

Legend:
Type in all cases: cell-based
[1] = tested on: PARP cleavage, caspase 3 and caspase 7 activation; assay: Western blot of apoptosis-related biomarkers in LNCaP cells; conditions: 72 h
[2] = tested on: LNCaP androgen-responsive prostate cancer cells; assay: MTT cell viability assay, LNCaP cells; conditions: for IC50: Homo sapiens, 5% FBS, read-out: IC50 for suppressing cell viability
Method: (§1) Cell Counting and Cell Viability Assay. LNCaP or PC-3 cells were placed in six-well plates (2.5×10^5 cells/well) in 10% FBS-supplemented RPMI 1640 for 24 h, and treated with various concentrations of compound 12 for additional 24, 48 and 72 h. Cells were then trypsinized and counted by using a Coulter counter (Model Z1 D/T, Beckman Coulter, Fullerton, Calif.). Cell viability was assessed by using the 3-(4,5-dimethylthiazol-2-yl)-2,5-diphenyl-2H-tetrazolium bromide (MTT) assay in six replicates in 96-well plates. LNCaP or PC-3 cells were seeded at 6000 cells per well in 10% FBS-supplemented RPMI 1640 for 24 h, followed by treatments with various compounds in 5% FBS-supplemented RPMI 1640 at the indicated concentrations. Controls received DMSO at a concentration equal to that in drug-treated cells. After the end of incubation, MTT (0.5 mg/ml) in 10% FBS-supplemented RPMI 1640 was added to each well, and cells were incubated at 37° C. for 2 hours. Medium was removed and the reduced MTT dye was solubilized in DMSO (200 μl/well). Absorbance was determined at 570 nm by a 96-well plate reader.

LNCaP and PC-3 cells = assay: Cell counting assay for cell proliferation, LNCaP versus PC-3; conditions: Coulter counter (FIG. 5B)
Method: as §1

PPARγ = target: T1, PPARγ (Homo sapiens, UniProt P37231); assay: PPRE-luciferase reporter assay (PPRE-x3-TK-Luc) in PC-3 cells; conditions: PC-3 cells transfected with PPRE-x3-TK-Luc
T1 construct: In PC-3 cells transfected with a reporter construct (PPRE-x3-TK-Luc); endogenous in cells; host or cells: PC-3
T1 sequence (P37231 1-505): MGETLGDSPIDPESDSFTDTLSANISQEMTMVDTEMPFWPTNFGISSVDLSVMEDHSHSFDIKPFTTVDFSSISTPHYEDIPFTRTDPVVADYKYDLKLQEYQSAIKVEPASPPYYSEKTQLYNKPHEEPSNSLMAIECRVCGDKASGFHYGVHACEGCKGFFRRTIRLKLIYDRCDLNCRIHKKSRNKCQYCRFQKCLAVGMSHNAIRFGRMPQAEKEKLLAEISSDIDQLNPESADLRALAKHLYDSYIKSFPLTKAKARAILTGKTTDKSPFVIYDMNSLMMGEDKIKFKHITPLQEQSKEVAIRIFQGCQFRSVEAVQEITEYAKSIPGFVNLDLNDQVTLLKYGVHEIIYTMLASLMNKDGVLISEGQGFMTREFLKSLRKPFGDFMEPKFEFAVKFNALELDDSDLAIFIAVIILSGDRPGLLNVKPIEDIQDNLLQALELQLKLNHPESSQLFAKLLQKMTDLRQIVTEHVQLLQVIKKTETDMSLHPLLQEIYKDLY
Text: Transfection and Luciferase assay. The 3.6-kilobase AR promoter-linked reporter plasmid p-3600ARCAT was kindly provided by Dr. Chawnshang Chang (University of Rochester Medical Center, Rochester, N.Y.). The AR promoter gene (−3600 to +550) encompassing the transcription start site was isolated by using PCR to generate hAR-luc with suitable primers. The fragment was subcloned into the pGL3 luciferase reporter vector (Promega, Madison, Wis.) at KpnI and BglII in the multiple cloning site. The PPRE-x3-TK-Luc reporter vector contains three copies of the PPAR-response element (PPRE) upstream of the thymidine kinase promoter-luciferase fusion gene and was kindly provided by Dr. Bruce Spiegelman (Harvard University, Cambridge, Mass.). The pCMVSp1 plasmid was purchased from Origene Technologies, Inc. (Rockville, Md.). LNCaP or PC3 cells were transfected with 5 μg of individual plasmids in an Amaxa Nucleofector using a cell line-specific nucleofector kit according to the manufacturer's protocol (Amaxa Biosystems, Cologne, Germany), and then seeded in 6-well plates at 5×10^5 cells per well for 48 h. […] For each transfection, herpes simplex virus thymidine kinase promoter-driven Renilla reniformis luciferase was used as an internal control for normalization.
Fifty-μl aliquots of the lysates were added to 96-well plates, and luciferase activity was monitored after adding 100 μl of luciferase substrate (Promega) each well by using a MicroLumatPlus LB96V luminometer (Berthold Technologies, Oak Ridge, Tenn.) with the WinGlow software package. All transfection experiments were carried out in six replicate.

SMILES: CC1(CN2C(=O)S/C(=C\c3ccc(O)c(C(F)(F)F)c3)C2=O)CCCCC1 [Compound 12, 5-(4-Hydroxy-3-trifluoromethyl-benzylidene)-3-(1-methyl-cyclohexylmethyl)-thiazolidine-2,4-dione]
- apoptosis-related biomarkers: PARP cleavage, proteolytic activation of caspase 3 and caspase 7 [1]: dose-dependent effects
- inhibition of LNCaP cell viability (in words) ([2]; 48 h): optimal agents
- IC50 ([2]; 48 h): 8 µM
- IC50 ([2]; 72 h): 3 µM
- potency in inhibiting proliferation of LNCaP cells compared to PC-3 cells (LNCaP and PC-3 cells): at least twofold higher potency
- PPARγ activation (in words) (PPARγ): lacked appreciable activity
